Data: patent publication US20060160887A1, “Medicinal composition” (Kyowa Hakko Kogyo Co., Ltd., priority 2003, published 2006)

How the values were obtained:
[1] = test system: A-type potassium channels; conditions: known from WO02/078523 and WO02/078710; cited from earlier work
[2] = test system: premicturition contractions in rats with spinal cord injury; test: Inhibitory activity on detrusor overactivity (cystometry, premicturition contractions) in rats with spinal cord injury; type: in vivo, rat; conditions: p.o.; for amplitude of premicturition contractions (relative value, before administration = 100) / frequency of premicturition contractions (relative value, before administration = 100): female SD rats with spinal cord injury, mean ± SE, n = 9; for effect on premicturition contractions (amplitude and frequency of premicturition contractions), in words: rats with spinal cord injury, summary of Tables 1 and 2
From the text: Spinal cord was injured in the rats.

[3] = Compound (Ia) 0.01 mg/kg, after 1 hour
[4] = Compound (Ia) 0.01 mg/kg, after 3 hours
[5] = Compound (Ia) 0.01 mg/kg, after 5 hours
[6] = Tolterodine 3 mg/kg, after 1 hour
[7] = Tolterodine 3 mg/kg, after 3 hours
[8] = Tolterodine 3 mg/kg, after 5 hours

CC(O)(C(=O)Nc1cccc2c1C(=O)c1sccc1CS2(=O)=O)C(F)(F)F (stereo not drawn) [Compound (I), 3,3,3-trifluoro-2-hydroxy-2-methyl-N-(5,5,10-trioxo-4,10-dihydrothieno[3,2-c][1]benzothiepin-9-yl)propanamide]
effect on A-type potassium channels, in words [1]: opening effect of A-type potassium channels

C[C@](O)(C(=O)Nc1cccc2c1C(=O)c1sccc1CS2(=O)=O)C(F)(F)F [Compound (Ia), (S)-(+)-3,3,3-trifluoro-2-hydroxy-2-methyl-N-(5,5,10-trioxo-4,10-dihydrothieno[3,2-c][1]benzothiepin-9-yl) propanamide]
amplitude of premicturition contractions (relative value, before administration = 100) [2, 3]: 71.9 ± 7.3 %
frequency of premicturition contractions (relative value, before administration = 100) [2, 3]: 61.6 ± 9.8 %
amplitude of premicturition contractions (relative value, before administration = 100) [2, 4]: 62.6 ± 7.3 %
frequency of premicturition contractions (relative value, before administration = 100) [2, 4]: 53.2 ± 4.9 %
amplitude of premicturition contractions (relative value, before administration = 100) [2, 5]: 65.1 ± 7.2%
frequency of premicturition contractions (relative value, before administration = 100) [2, 5]: 56.0 ± 8.3 %
effect on premicturition contractions (amplitude and frequency of premicturition contractions), in words [2]: inhibited premicturition contractions

Cc1ccc(O)c([C@H](CCN(C(C)C)C(C)C)c2ccccc2)c1 [Tolterodine, tolterodine, reference compound]
amplitude of premicturition contractions (relative value, before administration = 100) [2, 6]: 105.9 ± 24.3%
frequency of premicturition contractions (relative value, before administration = 100) [2, 6]: 70.4 ± 11.6%
amplitude of premicturition contractions (relative value, before administration = 100) [2, 7]: 79.6 ± 9.7%
frequency of premicturition contractions (relative value, before administration = 100) [2, 7]: 73.4 ± 8.2%
amplitude of premicturition contractions (relative value, before administration = 100) [2, 8]: 70.3 ± 11.9 %
frequency of premicturition contractions (relative value, before administration = 100) [2, 8]: 75.5 ± 12.0%
effect on premicturition contractions (amplitude and frequency of premicturition contractions), in words [2]: inhibited premicturition contractions
